A word on the melting point: it is the temperature, or range, at which the solid turns liquid.

Molecules are shown by their SMILES.

`CCn1cc(Br)ccc1=NC=C(S(=O)(=O)c1ccccc1)S(=O)(=O)c1ccccc1`: the melting point was 233 to 235 °C. As to `CCCCCCCCCCCCc1cc2cc(C(=O)OCC)ccc2[nH]1`, the melting point fell in the range of 77 to 79 °C. The result for `OCCON=Cc1ccncc1` reads 78 to 80 °C. As to `COC(=O)C1=C(C)Nc2nc(N3CCOCC3)nc(N3CCOCC3)c2C1c1cccc([N+](=O)[O-])c1` (centres undefined), the melting point is 165 °C.

Consider `CC(C)(CCc1cc2nc(Cl)ccc2n1S(=O)(=O)c1ccc2ncsc2c1)C(=O)O`, for which the melting point was 21 °C. In the case of `COC(=O)C1=C(O)C(OC)(OC)C(O)=C(C(=O)OC)C1`, the melting point lay in the range of 143 to 144 °C. For `Cc1nccn1-c1ccc(COc2cccc(C3(C(N)=O)CCCC3)c2)cc1`, the melting point was in the range of 163 to 164 °C. In turn, `Cc1nc2c(N)nc3ccccc3c2n1CCCCNC(=O)C1CCCC1` showed a melting point of 169 to 170 °C. As to `O=C(O)c1c(-c2ccccc2)c2cc(OCc3ccccc3)ccc2n1Cc1cc2c(cc1Cl)OCO2`, the melting point fell in the range of 213 to 214 °C. For `Cc1cccc(NC(=O)c2cc([N+](=O)[O-])ccc2NC(=O)CF)c1C`, the melting point is 236 to 239 °C.

Take `COc1cc(-c2cnc3[nH]cc(I)c3n2)cc(OC)c1OC`: the melting point is 230 to 232 °C. `CCCN(Cc1ccc(NCCN(CC)CC)c2c(=O)c3ccccc3sc12)S(C)(=O)=O` yielded a melting point of 142 to 143 °C. As to `CSc1ccc(-c2ccc(C(F)(F)F)cc2)nc1F`, the melting point was 70 to 73 °C. The result for `Cc1ncc2c(n1)-c1ccccc1N(C(=O)c1ccc([N+](=O)[O-])cc1)CC2` reads 211 to 212 °C; that for `CCCCCc1c([N+](=O)[O-])cc([N+](=O)[O-])c2nc(C(F)(F)F)[nH]c12`, 86 to 88 °C.

Molecule `O=C(CS(=O)Cc1ccc(Cl)c(Cl)c1)NO` (centres undefined) yielded a melting point of 191 to 192 °C. In turn, `CC(C)NC(=O)C1OC1c1ccccc1` (centres undefined) showed a melting point of 114 to 115 °C.

`CC(C)(C)c1cc(-n2nc3ccc(S(=O)c4ccccc4)cc3n2)c(O)c(C(C)(C)C)c1` (centres undefined) yielded a melting point of 152 to 154 °C. The result for `CNc1ccc(C(=O)Nc2c(C)cccc2C)cn1` reads 207 to 209 °C; that for `CO[C@@H]1CN(CC2OCCO2)CC[C@@H]1NC(=O)c1cc(Cl)c(N)c2c1OCC2` (relative stereo), 149 °C; that for `O=C(O)COCc1cc2cc(Cl)ccc2n1S(=O)(=O)c1ccccc1`, 140 to 142 °C. In turn, `O=C(N=C1SCCN1Cc1ccc(Cl)nc1)c1ccccc1` came in with a melting point of 133 °C. On to `O=C1CN(c2ccccc2)C(=O)N1C(=O)c1ccc(Cl)cc1`, for which the melting point lay within 182 to 184 °C. Take `CCCN(c1nc(-c2ccc(OC)cc2Cl)c(C)s1)c1cc(-c2ccccc2C)ccc1OC`: the melting point is 55 °C. Regarding `Cc1sc(NS(=O)(=O)c2c(Cl)cc(Cl)cc2Cl)nc1CC(=O)N1CCOCC1`, the melting point fell in the range of 216 to 217 °C.

In turn, `COc1ccc(C(=O)N2CCc3cc(OCc4ccccc4)c(OC)cc3C2)cc1` had a melting point of 126 to 127 °C. As for `O=C1COc2c1ccc1ccccc21`, the melting point lay within 191 to 192 °C.

Consider `C#Cc1cnn2c(C3CC3)cc(-c3ccc(Cl)c(Cl)c3)nc12`, for which the melting point is 194 to 196 °C.

`Cc1nc2cc3c(cc2s1)C1(CO3)C(=O)N(CC2CCOCC2)c2ccccc21` (centres undefined) yielded a melting point of 186 to 187 °C. The result for `CSc1sc(NC(=O)OC(C)(C)C)c(NC(=O)OC(C)(C)C)c1C#N` reads 156 to 157 °C.

The molecule `Cc1c(Nc2ncccc2C(=O)O)cccc1C(F)F` came in with a melting point of 232 to 234 °C. The result for `CC1CC(=O)NN=C1c1ccc(NC(=O)Oc2ccc([N+](=O)[O-])cc2)cc1` (centres undefined) reads 177 to 178 °C.

In the case of `CCCC[C@@H](C)C[C@@H](CC(=O)OC(C)(C)C)C(=O)N1C(=O)O[C@@H](c2ccccc2)[C@H]1C`, the melting point was in the range of 84 to 86 °C. As for `CC(=O)N(C)c1c(C(=O)C2CCCCC2)[nH]c2cc(Cl)ccc12`, the melting point was in the range of 162 to 163 °C. The result for `COC(=O)Cc1csc2cc(-c3ccccc3)c(C=O)n12` reads 118 to 120 °C; that for `Cc1ccc(CN(C)CCOc2ccc(NC(=O)c3cccc4c(=O)c5ccccc5[nH]c34)cc2)cc1`, 168 °C. With `O=C(CN1CCC(Cc2ccccc2)CC1)Nc1ccc(O)cc1`, the melting point fell in the range of 66 to 70 °C.

Molecule `c1ccc2c(c1)CC1(c3c[nH]cn3)CCCC21` (centres undefined) yielded a melting point of 171 to 174 °C. In turn, `O=C1c2cccc3cccc(c23)C(=O)N1CCCCCBr` had a melting point of 113 to 115 °C. Regarding `O=C1Nc2ccc(Br)cc2C2(c3ccccn3)OCCN12` (centres undefined), the melting point was 241 to 242 °C. `O=c1[nH][nH]c(C(F)(F)F)c1Cc1ccc2c(c1)OCO2` came in with a melting point of 196 to 197 °C. Molecule `CN(C)CCOCC1=Nc2cc(Cl)ccc2S(=O)(=O)N1` gave a melting point of 219 to 221 °C. The molecule `CC(C)(C)C(=O)OC1CC(C)(C)N(OC(=O)C(C)(C)C)C(C)(C)C1` yielded a melting point of 43 to 46 °C. The result for `CC(C)(C)[Si](C)(C)OCc1cc(-c2ccc3nc(Cl)cn3c2)cs1` reads 100 to 104 °C; that for `CC(=O)Nc1ccc(OC(=O)C=CC=C(C)C=CC=C(C)C=CC2=C(C)CCCC2(C)C)cc1`, 219 to 222 °C; that for `COC(=O)CNC(=S)n1nc(-c2ccc(Cl)cc2)nc1N`, 142 to 145 °C. In turn, `Cc1cccc(C)c1C=Nc1cc(Cl)c(N=CN(C)C)c(Cl)c1` displayed a melting point of 123 to 124 °C. For `Clc1cccc(C2=NOCCS2)c1`, the melting point is 65 °C. As for `CC(C)(C)OC(=O)c1sc(Nc2ccc(Cl)cc2)c2c1CCc1cnoc1-2`, the melting point lay in the range of 197 to 198 °C. In the case of `FC(F)(F)c1ccc(Sc2nc(-c3ccccc3)c(-c3ccccc3)[nH]2)cc1`, the melting point lay within 227 to 229 °C. Molecule `COc1ccc(C(CC#N)CC#N)cc1O` gave a melting point of 90 to 92 °C. In the case of `O=S1(=O)N=CN(C2CC2)c2cc(Br)ccc21`, the melting point is 268 to 271 °C. `COc1cc(C)nc(NCn2cncn2)n1` registered a melting point of 191 to 193 °C. `COC1c2ccccc2CSc2ccc(Br)cc21` (centres undefined) returned a melting point of 68 to 71 °C.

`N[C@H]1CCN(c2ccc3c(C(=O)NCC4CCCCC4)cccc3n2)C1` had a melting point of 127 to 128 °C. `CNC(=S)NS(=O)(=O)c1cc(CCNC(=O)c2cc(C(C)(C)C)ccc2OC)ccc1OCCOC`: the melting point was found to be 61 °C. The result for `CC1(C)CCC(Cc2ccc(Cl)cc2)C1(O)Cn1ccnc1` (centres undefined) reads 130 to 132 °C; that for `CNC(=O)C1CN(CC(=O)Nc2c(C)cc(C)cc2C)CCN1CCCC(c1ccc(F)cc1)c1ccc(F)cc1` (centres undefined), 82.3 °C. As for `CCCc1c(OCCCCC(=O)NCCCCc2cccnc2)ccc(C(C)=O)c1O`, the melting point was in the range of 76 to 78 °C.

As for `COC(=O)c1cc(-c2ccc(C)cc2)n(Cc2ccc(Cl)cc2Cl)n1`, the melting point was determined as 105 °C. Consider `COC(=O)c1cccc2nnsc12`, for which the melting point fell in the range of 130 to 133 °C. In the case of `Oc1cccc2c(CCc3ccccc3)ccnc12`, the melting point lay in the range of 102 to 103 °C. On to `COc1cc(OS(=O)(=O)C(F)(F)F)c(Cl)c(C)c1Cl`, for which the melting point is 74 °C. As for `COc1ccc2c(ccn3c(C)nnc23)c1`, the melting point lay in the range of 183 to 184 °C.

Values taken from a melting point compilation (Tetko et al.; mined from patent text by program, amines drawn as free bases though some values may be those of a salt).
